From US8367658B2, “Pyrazin-2-yl-pyridin-2-yl-amine and pyrazin-2-yl-pyrimidin-4-yl-amine compounds and their use” (Cancer Research Technology Limited, priority 2007, dated 2013)
“And” between values parts separate entries of the source, which are not always exact repeats. Equal values may be shown once.

molecular target: T1, CHK1 (Homo sapiens, UniProt O14757); assay: CHK1 kinase function inhibition assay (DELFIA, phosphorylation of a CDC25C peptide); assay type: biochemical; conditions: CHK1 1 nM, ATP 30 μM, 30 minutes at room temperature
T1 sequence (O14757 1-476): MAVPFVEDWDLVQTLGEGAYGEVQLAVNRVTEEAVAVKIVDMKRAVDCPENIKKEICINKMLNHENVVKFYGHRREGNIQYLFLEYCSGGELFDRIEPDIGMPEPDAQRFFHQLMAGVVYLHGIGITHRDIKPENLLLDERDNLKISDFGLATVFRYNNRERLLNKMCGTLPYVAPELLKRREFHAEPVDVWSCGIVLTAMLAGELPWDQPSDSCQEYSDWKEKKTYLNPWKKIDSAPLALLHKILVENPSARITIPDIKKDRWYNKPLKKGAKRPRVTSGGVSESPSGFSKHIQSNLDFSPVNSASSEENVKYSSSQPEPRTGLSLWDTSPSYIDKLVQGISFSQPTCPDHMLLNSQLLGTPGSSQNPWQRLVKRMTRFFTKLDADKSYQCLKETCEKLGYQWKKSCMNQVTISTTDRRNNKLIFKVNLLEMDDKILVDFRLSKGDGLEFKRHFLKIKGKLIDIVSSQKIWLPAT
Procedure: Measurement of Inhibition of CHK1 Kinase Function
CHK1 kinase function was measured in a DELFIA® assay in order to monitor phosphorylation of a CDC25C peptide using a specific phospho antibody.
The reaction mixture was incubated for 30 minutes at room temperature and then stopped by the addition of buffer (125 μL) containing 40 mM EDTA, 0.05% Tween 20, 0.1% BSA in TBS (10× concentrate, Sigma). An aliquot (100 μL) of the stopped reaction mixture was transferred to a black neutravidin-coated plate (Perbio) and incubated for 1 hour on a shaker (Titertek, Flow Laboratories) at room temperature. […] The plates were washed a further four times with wash buffer before the addition of enhancement solution (100 μL/well, PerkinElmer Life Sciences).

`COCc1ccc(-c2cnc(Nc3cnc(C#N)cn3)cc2NC2CCN(C)CC2)cc1` [Compound Y-119, 5-(5-(4-(Methoxymethyl)phenyl)-4-(1-methylpiperidin-4-ylamino)pyridin-2-ylamino)pyrazine-2-carbonitrile] and `COc1cccc(-c2cnc(Nc3cnc(C#N)cn3)cc2NC2CCN(C)CC2)c1` [Compound Y-116, 5-(5-(3-Methoxyphenyl)-4-(1-methylpiperidin-4-ylamino)pyridin-2-ylamino)pyrazine-2-carbonitrile] cannot be ordered by IC50: ≤ 100 nM for the first, ≤ 100 nM for the second.

First: CN1C2CCC1CC(Nc1cc(Nc3cnc(C#N)cn3)ncn1)C2 [Compound Z-027, 5-(6-((1R,3s,5S)-8-Methyl-8-azabicyclo[3.2.1]octan-3-ylamino)pyrimidin-4-ylamino)pyrazine-2-carbonitrile]
Second: N#Cc1cnc(Nc2cc(N[C@H]3CC[C@H](O)CC3)ncn2)cn1 [Compound Z-038, 5-(6-((1r,4r)-4-Hydroxycyclohexylamino)pyrimidin-4-ylamino)pyrazine-2-carbonitrile]
The IC50 of the first is lower: ≤ 100 nM for the first, 1000 to 10000 nM for the second.

`CN1CCC(Nc2cc(Nc3cnc(C#N)cn3)ncc2-n2cccc2)CC1` [Compound Y-058, 5-(4-(1-Methylpiperidin-4-ylamino)-5-(1H-pyrrol-1-yl)pyridin-2-ylamino)pyrazine-2-carbonitrile] and `CN1CCC(Nc2cc(Nc3cnc(C#N)cn3)ncc2C(=O)Nc2ccccc2)CC1` [Compound Y-103, 6-(5-Cyanopyrazin-2-ylamino)-4-(1-methylpiperidin-4-ylamino)-N-phenylnicotinamide] cannot be ordered by IC50: ≤ 100 nM for the first, ≤ 100 nM for the second.

`N#Cc1cnc(Nc2cc(N3CCC(C(N)c4ccccc4)CC3)ncn2)cn1` (centres unmarked) [Compound Z-015, 5-(6-(4-(Amino(phenyl)methyl)piperidin-1-yl)pyrimidin-4-ylamino)pyrazine-2-carbonitrile] and `N#Cc1cnc(Nc2cc(NCCC(N)c3ccccc3)c(N)cn2)cn1` (centres unmarked) [Compound Y-050, 5-(5-Amino-4-(3-amino-3-phenylpropylamino)pyridin-2-ylamino)pyrazine-2-carbonitrile] fall in the same range of IC50: 1000 to 10000 nM for the first, 1000 to 10000 nM for the second.

`COC(=O)c1cnc(Nc2cnc(C#N)cn2)cc1NCC[C@H]1CNCCO1` [Compound Y-082, (S)-Methyl 6-(5-cyanopyrazin-2-ylamino)-4-(2-(morpholin-2-yl)ethylamino)nicotinate] and `COCc1ccc(-c2cnc(Nc3cnc(C#N)cn3)cc2NC[C@@H]2CNCCO2)cc1` [Compound Y-148, (S)-5-(5-(4-(Methoxymethyl)phenyl)-4-(morpholin-2-ylmethylamino)pyridin-2-ylamino)pyrazine-2-carbonitrile] cannot be ordered by IC50: ≤ 100 nM for the first, ≤ 100 nM for the second.

`CN(C)CC(=O)Nc1cnc(Nc2cnc(C#N)cn2)cc1NCC1CCCNC1` (centres unmarked) [Compound Y-044, N-(6-(5-Cyanopyrazin-2-ylamino)-4-(piperidin-3-ylmethylamino)pyridin-3-yl)-2-(dimethylamino)acetamide] and `CN(C)CC(=O)Nc1cnc(Nc2cnc(C#N)cn2)cc1N[C@@H]1CCCNC1` [Compound Y-043, (R)—N-(6-(5-Cyanopyrazin-2-ylamino)-4-(piperidin-3-ylamino)pyridin-3-yl)-2-(dimethylamino)acetamide] fall in the same range of IC50: 100 to 1000 nM for the first, 100 to 1000 nM for the second.

`COC(=O)c1cnc(Nc2cnc(C)cn2)cc1NC1CCN(C)CC1` [Compound Y-105, methyl 4-(1-methylpiperidin-4-ylamino)-6-(5-methylpyrazin-2-ylamino)nicotinate] and `COC/C=C/c1cnc(Nc2cnc(C#N)cn2)cc1NC1CCN(C)CC1` [Compound Y-123, (E)-5-(5-(3-methoxyprop-1-enyl)-4-(1-methylpiperidin-4-ylamino)pyridin-2-ylamino)pyrazine-2-carbonitrile] cannot be ordered by IC50: ≤ 100 nM for the first, ≤ 100 nM for the second.

`N#Cc1cnc(Nc2cc(NCC3CCNCC3)c(C(=O)Nc3ccc(F)cc3)cn2)cn1` [Compound Y-092, 6-(5-Cyanopyrazin-2-ylamino)-N-(4-fluorophenyl)-4-(piperidin-4-ylmethylamino)nicotinamide] and `N#Cc1cnc(Nc2cc(NCC3CCNCC3)c(C(=O)Nc3cccc(F)c3)cn2)cn1` [Compound Y-094, 6-(5-Cyanopyrazin-2-ylamino)-N-(3-fluorophenyl)-4-(piperidin-4-ylmethylamino)nicotinamide] fall in the same range of IC50: 100 to 1000 nM for the first, 100 to 1000 nM for the second.

`COCCCc1cnc(Nc2cnc(C#N)cn2)cc1NCC1CCNCC1` [Compound Y-141, 5-(5-(3-methoxypropyl)-4-(piperidin-4-ylmethylamino)pyridin-2-ylamino)pyrazine-2-carbonitrile] and `N#Cc1cnc(Nc2cc(NCC3CCNCC3)c(C(N)=O)cn2)cn1` [Compound Y-101, 6-(5-Cyanopyrazin-2-ylamino)-4-(piperidin-4-ylmethylamino)nicotinamide] cannot be ordered by IC50: ≤ 100 nM for the first, 100 to 1000 nM for the second.

`N#Cc1cnc(Nc2cc(NCC3CCCCN3)c(N)cn2)cn1` (centres unmarked) [Compound Y-051, 5-(5-Amino-4-(piperidin-2-ylmethylamino)pyridin-2-ylamino)pyrazine-2-carbonitrile] and `N#Cc1cnc(Nc2cc(N[C@H]3CCCNC3)c(N)cn2)cn1` [Compound Y-009, (S)-5-(5-Amino-4-(piperidin-3-ylamino)pyridin-2-ylamino)pyrazine-2-carbonitrile] fall in the same range of IC50: 1000 to 10000 nM for the first, 1000 to 10000 nM for the second.

`N#Cc1cnc(Nc2cc(N[C@H]3CCCNC3)ncn2)cn1` [Compound Z-013, (S)-5-(6-(Piperidin-3-ylamino)pyrimidin-4-ylamino)pyrazine-2-carbonitrile] and `CC(Nc1cc(Nc2cnc(C#N)cn2)ncn1)C1CCNCC1` (centres unmarked) [Compound Z-032, 5-(6-(1-(Piperidin-4-yl)ethylamino)pyrimidin-4-ylamino)pyrazine-2-carbonitrile] fall in the same range of IC50: 1000 to 10000 nM for the first, 1000 to 10000 nM for the second.

`CS(=O)(=O)c1ccc(-c2cnc(Nc3cnc(C#N)cn3)cc2NCC2CCNCC2)cc1` [Compound Y-130, 5-(5-(4-(methylsulfonyl)phenyl)-4-(piperidin-4-ylmethylamino)pyridin-2-ylamino)pyrazine-2-carbonitrile] and `CCOC(=O)c1cc(-c2cnc(Nc3cnc(C#N)cn3)cc2NCC2CCNCC2)cs1` [Compound Y-128, Ethyl 4-(6-(5-cyanopyrazin-2-ylamino)-4-(piperidin-4-ylmethylamino)pyridin-3-yl)thiophene-2-carboxylate] cannot be ordered by IC50: ≤ 100 nM for the first, ≤ 100 nM for the second.

`N#Cc1cnc(Nc2cc(NCC3CCCNC3)c(NC(=O)CCC3CCNCC3)cn2)cn1` (centres unmarked) [Compound Y-053, N-(6-(5-Cyanopyrazin-2-ylamino)-4-(piperidin-3-ylmethylamino)pyridin-3-yl)-3-(piperidin-4-yl)propanamide] and `N#Cc1cnc(Nc2cc(NCC3CCCNC3)c(N3CCC(O)C3)cn2)cn1` (stereo in doubt) [Compound Y-061, 5-(5-(3-Hydroxypyrrolidin-1-yl)-4-((R)-piperidin-3-ylmethylamino)pyridin-2-ylamino) pyrazine-2-carbonitrile] cannot be ordered by IC50: ≤ 100 nM for the first, ≤ 100 nM for the second.

First: COC(=O)c1cnc(Nc2cnc(C#N)cn2)cc1N[C@H]1C[C@H]2CC[C@@H](C1)N2Cc1ccccc1 [Compound Y-030, Methyl 4-((1R,3r,5S)-8-benzyl-8-azabicyclo[3.2.1]octan-3-ylamino)-6-(5-cyanopyrazin-2-ylamino)nicotinate]
Second: COC(=O)c1cnc(Nc2cnc(C#N)cn2)cc1NC1CC2CCC(C1)N2Cc1ccccn1 (centres unmarked) [Compound Y-080, Methyl 6-(5-cyanopyrazin-2-ylamino)-4-(8-(pyridin-2-ylmethyl)-8-azabicyclo[3.2.1]octan-3-ylamino)nicotinate]
The IC50 of the first is higher: 1000 to 10000 nM for the first, ≤ 100 nM for the second.

`CC(C)NC(=O)c1cnc(Nc2cnc(C#N)cn2)cc1NCC1CCNCC1` [Compound Y-086, 6-(5-Cyanopyrazin-2-ylamino)-N-isopropyl-4-(piperidin-4-ylmethylamino)nicotinamide] and `COC(=O)c1cnc(Nc2cnc(C#N)cn2)cc1N(C)CC1CCNCC1` [Compound Y-021, Methyl 6-(5-cyanopyrazin-2-ylamino)-4-(methyl(piperidin-4-ylmethyl)amino)nicotinate] cannot be ordered by IC50: ≤ 100 nM for the first, ≤ 100 nM for the second.

`N#Cc1cnc(Nc2cc(N(CCN)CC(N)=O)ncn2)cn1` [Compound Z-009, 2-((2-Aminoethyl)(6-(5-cyanopyrazin-2-ylamino)pyrimidin-4-yl)amino)acetamide] and `CC1(CNc2cc(Nc3cnc(C#N)cn3)ncn2)CCNCC1` [Compound Z-028, 5-(6-((4-Methylpiperidin-4-yl)methylamino)pyrimidin-4-ylamino)pyrazine-2-carbonitrile] fall in the same range of IC50: 1000 to 10000 nM for the first, 1000 to 10000 nM for the second.

`N#Cc1cnc(Nc2cc(NCCC[C@H](N)C(=O)NCc3ccccc3)ncn2)cn1` [Compound Z-011, (S)-2-Amino-N-benzyl-5-(6-(5-cyanopyrazin-2-ylamino)pyrimidin-4-ylamino)pentanamide] was tested, and the IC50 was ≤ 1000 nM and 100 to 1000 nM.
In the case of `N#Cc1cnc(Nc2cc(N[C@@H]3CCCNC3)c(N)cn2)cn1` [Compound Y-008, (R)-5-(5-Amino-4-(piperidin-3-ylamino)pyridin-2-ylamino)pyrazine-2-carbonitrile], the IC50 is reported as ≤ 1000 nM and 100 to 1000 nM.
In the case of `N#Cc1cnc(Nc2cc(NCCN)c(N)cn2)cn1` [Compound Y-003, 5-(5-Amino-4-(2-aminoethylamino)pyridin-2-ylamino)pyrazine-2-carbonitrile], the IC50 is reported as ≤ 1000 nM and 660 nM and 100 to 1000 nM.
